No end group written: not given here.
Legend:
[1] = test system: Caco-2 cells (human intestinal epithelial cells); experiment: Membrane strengthening experiment (TER recovery of barrier function after TNF-α); type: cell-based; conditions: for function of strengthening the barrier function (membrane-strengthening ability): result in words, FIG. 1A-1H
[2] = 500 to 1,000 ppm of quercetin added to the feed; cited from earlier work
intestinal microbiota = conditions: cited from earlier work
[3] = Chicken growth test (body weight gain and feed conversion ratio); type: in vivo, broiler chickens
Salmonella enterica (SE) [4] = experiment: Salmonella infection test in chickens (body weight gain and feed conversion ratio); type: in vivo, chickens (broilers); conditions: for BWG / FCR: 0-3 week, SE orally at 2 days of age; for body weight gain effect and feed conversion ratio improvement effect: result in words, Salmonella enterica infected broilers, test feed 21 days
Experimental: The coated-Tyr and Tyr prepared in the same manner as in Example 2-1 were added to the feed matrix having the composition presented in Table 2 so that the amount of the core material was 200 ppm, to thereby prepare a feed. Broilers at 1 day of age were introduced into a breeding facility for infection test (6 broilers/repeat and 2 repeats/test group), then Salmonella enterica (SE) was orally administered to the broilers at 2 days of age, and the test feed was fed for 21 days to evaluate the body weight gain effect and feed conversion ratio of chickens. Note that a conventional antimicrobial growth promoter, enramycin, was used as a positive control. As enramycin, a commercially available product (“Enramycin F-80” manufactured by Scientific Feed Laboratory Co., Ltd., uncoated) was used as it was.
The results are presented with a negative control of 100. […]
Broilers at 0 days of age were introduced into a breeding facility for infection test (6 broilers/repeat and 2 repeats/test group), then Salmonella enterica (SE) was orally administered to the broilers at 2 days of age, and the test feed was fed for 21 days to evaluate the body weight gain effect and feed conversion ratio. Note that a conventional antimicrobial growth promoter, enramycin, was used as a positive control. As enramycin, a commercially available product (“Enramycin F-80” manufactured by Scientific Feed Laboratory Co., Ltd., uncoated) was used as it was.

[5] = Metabolome analysis of intestinal tract contents and blood; type: in vivo, chickens; conditions: metabolome analysis; chicken growth test of 2-3
Source text: It is thus considered that coated-Phe and coated-Tyr are assimilated by intestinal bacteria in feces and rapidly metabolized in blood.

Clostridium perfringens = type: cell-based; set-up: key: “+” to “+++++”: indicates the strength of antibacterial effect. The more “+”, the stronger the effect.; “+” to “+++++”: indicates the strength of antibacterial effect. The more “+”, the stronger the effect.; “+” to “+++++”: indicates the strength of antibacterial effect. The more “+”, the stronger the effect.; “+” to “+++++”: indicates the strength of antibacterial effect. The more “+”, the stronger the effect.; “+” to “+++++”: indicates the strength of antibacterial effect. The more “+”, the stronger the effect.; “ND”: indicates no effect detected (not detected); conditions: Nisin A and Duramycin 1 mg/ml, others 10-fold concentrated culture supernatant of producers
[6] = test system: Lactobacillus acidophilus; experiment: Antibacterial spectrum of bacteriocin, spot-on lawn method; type: cell-based; set-up: key: “+” to “+++++”: indicates the strength of antibacterial effect. The more “+”, the stronger the effect.; “+” to “+++++”: indicates the strength of antibacterial effect. The more “+”, the stronger the effect.; “+” to “+++++”: indicates the strength of antibacterial effect. The more “+”, the stronger the effect.; “+” to “+++++”: indicates the strength of antibacterial effect. The more “+”, the stronger the effect.; “+” to “+++++”: indicates the strength of antibacterial effect. The more “+”, the stronger the effect.; “ND”: indicates no effect detected (not detected); conditions: Nisin A and Duramycin 1 mg/ml, others 10-fold concentrated culture supernatant of producers
[7] = test system: Bifidobacterium thermophilum AJ110569; experiment: as above; type: cell-based; set-up: key: “+” to “+++++”: indicates the strength of antibacterial effect. The more “+”, the stronger the effect.; “+” to “+++++”: indicates the strength of antibacterial effect. The more “+”, the stronger the effect.; “+” to “+++++”: indicates the strength of antibacterial effect. The more “+”, the stronger the effect.; “+” to “+++++”: indicates the strength of antibacterial effect. The more “+”, the stronger the effect.; “+” to “+++++”: indicates the strength of antibacterial effect. The more “+”, the stronger the effect.; “ND”: indicates no effect detected (not detected); conditions: Nisin A and Duramycin 1 mg/ml, others 10-fold concentrated culture supernatant of producers
[8] = test system: Bacteroides fragilis JCM11019; experiment: as above; type: cell-based; set-up: key: “+” to “+++++”: indicates the strength of antibacterial effect. The more “+”, the stronger the effect.; “+” to “+++++”: indicates the strength of antibacterial effect. The more “+”, the stronger the effect.; “+” to “+++++”: indicates the strength of antibacterial effect. The more “+”, the stronger the effect.; “+” to “+++++”: indicates the strength of antibacterial effect. The more “+”, the stronger the effect.; “+” to “+++++”: indicates the strength of antibacterial effect. The more “+”, the stronger the effect.; “ND”: indicates no effect detected (not detected); conditions: Nisin A and Duramycin 1 mg/ml, others 10-fold concentrated culture supernatant of producers
[9] = test system: Lactobacillus acidophilus AJ13778; experiment: Minimum inhibitory concentration, spot-on-lawn method; type: cell-based; conditions: indicator strain Lactobacillus acidophilus AJ13778; MRS, 37° C.
[10] = test system: Lactobacillus salivarius AJ110152; experiment: as above; type: cell-based; conditions: indicator strain Lactobacillus salivarius AJ110152; MRS, 37° C.
[11] = test system: Clostridium perfringens AJ3350; experiment: microbe, parasite or virus in culture; type: cell-based
[12] = test system: Enterococcus faecalis AJ110149; experiment: Minimum inhibitory concentration, spot-on-lawn method; type: cell-based; conditions: indicator strain Enterococcus faecalis AJ110149; MRS, 30° C.; ND = no effect detected
Escherichia coli MG1665 = experiment: as above; type: cell-based
[13] = test system: Bacteroides fragilis JCM11019; experiment: as above; type: cell-based; conditions: indicator strain Bacteroides fragilis JCM11019; GAM, 37° C.
[14] = test system: Bifidobacterium thermophilum AJ110569; experiment: as above; type: cell-based; conditions: indicator strain Bifidobacterium thermophilum AJ110569; GAM, 37° C.
[15] = test system: Salmonella enterica AJ2785; experiment: microbe, parasite or virus in culture; type: cell-based
Salmonella enterica (SE) [16] = experiment: Salmonella infection test in chickens (body weight gain and feed conversion ratio); type: in vivo, chickens (broilers); conditions: Table 5; 0-3 week; addition 10 ppm; SE orally at 2 days of age; negative control = 100
[17] = test system: Lactobacillus salivarius AJ110152; experiment: Antibacterial spectrum of bacteriocin, spot-on lawn method; type: cell-based; set-up: key: “+” to “+++++”: indicates the strength of antibacterial effect. The more “+”, the stronger the effect.; “+” to “+++++”: indicates the strength of antibacterial effect. The more “+”, the stronger the effect.; “+” to “+++++”: indicates the strength of antibacterial effect. The more “+”, the stronger the effect.; “+” to “+++++”: indicates the strength of antibacterial effect. The more “+”, the stronger the effect.; “+” to “+++++”: indicates the strength of antibacterial effect. The more “+”, the stronger the effect.; “ND”: indicates no effect detected (not detected); conditions: Nisin A and Duramycin 1 mg/ml, others 10-fold concentrated culture supernatant of producers
Escherichia coli MG1655 = experiment: as above; type: cell-based; set-up: key: “+” to “+++++”: indicates the strength of antibacterial effect. The more “+”, the stronger the effect.; “+” to “+++++”: indicates the strength of antibacterial effect. The more “+”, the stronger the effect.; “+” to “+++++”: indicates the strength of antibacterial effect. The more “+”, the stronger the effect.; “+” to “+++++”: indicates the strength of antibacterial effect. The more “+”, the stronger the effect.; “+” to “+++++”: indicates the strength of antibacterial effect. The more “+”, the stronger the effect.; “ND”: indicates no effect detected (not detected); conditions: Nisin A and Duramycin 1 mg/ml, others 10-fold concentrated culture supernatant of producers
[18] = test system: Enterococcus faecalis AJ110149; experiment: as above; type: cell-based; set-up: key: “+” to “+++++”: indicates the strength of antibacterial effect. The more “+”, the stronger the effect.; “+” to “+++++”: indicates the strength of antibacterial effect. The more “+”, the stronger the effect.; “+” to “+++++”: indicates the strength of antibacterial effect. The more “+”, the stronger the effect.; “+” to “+++++”: indicates the strength of antibacterial effect. The more “+”, the stronger the effect.; “+” to “+++++”: indicates the strength of antibacterial effect. The more “+”, the stronger the effect.; “ND”: indicates no effect detected (not detected); conditions: Nisin A and Duramycin 1 mg/ml, others 10-fold concentrated culture supernatant of producers
[19] = material conc. 100 uM, comparison value with Ctr (TNFα alone), 24 h
[20] = Table 4, 0-3 weeks, addition 200 ppm (core material) in feed
[21] = Table 5, addition 200 ppm, negative control = 100
[22] = Table 8, 10 ppm, control group = 100%

In the case of `O=c1c(O)c(-c2ccc(O)c(O)c2)oc2cc(O)cc(O)c12` [Quercetin, quercetin], the activity at 100 µM ([1]; Homo sapiens, Caco-2, material conc. 100 uM, TER barrier function recovery, 24 h, read-out: Recovery ratio (%)) is reported as 138%, the Recovery ratio/ctr [1, 19] is reported as 1.23 and the “function of strengthening the barrier function (membrane-strengthening ability)” value (“function” below) [1] is reported as “observed to have the function of strengthening the barrier function”. For the same molecule, the “body weight gain effect (body weight gain efficiency) and feed consumption” value [2] was “did not increase”, the feed conversion ratio [2] was “remained almost unchanged or slightly decreased” and the “effect on the intestinal microbiota” value (intestinal microbiota) was “negative effect”.

In the case of `N[C@@H](Cc1ccc(O)cc1)C(=O)O` [Tyrosin, tyrosine], the Recovery ratio/ctr ([1]; 24 h, 20 µM) is reported as 1.19, the activity at 20 µM ([1]; Homo sapiens, Caco-2, material conc. 20 uM, TER barrier function recovery, 24 h, read-out: Recovery ratio (%)) is reported as 138% and the “function” value [1] is reported as “observed to have the function of strengthening the barrier function”. For the same molecule, the BWG [3, 20] was 104%, the FCR [3, 20] was 98% and the “body weight gain effect and feed conversion ratio improvement effect” value ([3]; result in words, healthy broilers, 0 to 21 days of age) was “A certain degree of body weight gain effect was confirmed”. The BWG (Salmonella enterica (SE) [4]; [21]) was 96%, the FCR (Salmonella enterica (SE) [4]; [21]) was 100% and the “body weight gain effect and feed conversion ratio improvement effect” value (Salmonella enterica (SE) [4]) was “no effect”. The “detection in the intestinal tract contents or blood” value [5] was “not detected”.

With duramycin the “Recovery ratio (%)” value ([1]; material conc. 1 uM, TER barrier function recovery, 24 h) was 120%, the Recovery ratio/ctr ([1]; material conc. 1 uM, comparison value with Ctr (TNFα alone), 24 h) was 1.04 and the “Antibacterial spectrum (strength of antibacterial effect)” value (from here on “Antibacterial spectrum”) (Clostridium perfringens) was “+++++”. The “Antibacterial spectrum” value [6] was “+”, the “Antibacterial spectrum” value [7] was “++” and the “Antibacterial spectrum” value [8] was “+”.

In the case of enramycin, the “Recovery ratio (%)” value ([1]; material conc. 100 uM, TER barrier function recovery, 24 h) is reported as 144%, the Recovery ratio/ctr [1, 19] is reported as 1.28 and the BWG (Salmonella enterica (SE) [4]; [22]) is reported as 107%. It also gave an FCR (Salmonella enterica (SE) [4]; [22]) of 98%, a Minimum inhibitory concentration [9] of 500 µg/mL and a Minimum inhibitory concentration [10] of 500 µg/mL. The Minimum inhibitory concentration [11] was 1000 µg/mL, the Minimum inhibitory concentration [12] was 4000 µg/mL and the Minimum inhibitory concentration (Escherichia coli MG1665) was >100000 µg/mL. For the same molecule, the Minimum inhibitory concentration [13] was 64000 µg/mL, the Minimum inhibitory concentration [14] was 500 µg/mL and the Minimum inhibitory concentration [15] was >100000 µg/mL. The BWG (Salmonella enterica (SE) [16]) was 107% and the FCR (Salmonella enterica (SE) [16]) was 98%.

For “nisin A (ITSISLCTPGCKTGALMGCNMKTATCHCSIHVSK; not fully specified (some residues, bridges); also: lantibiotic (ring and dehydro residues not placed); UniProt P13068 24-57, looked up) [reagent manufactured by Sigma-Aldrich, nisin content 2.5% by mass, balance sodium chloride and denatured milk solids]”, the “function” value [1] was “observed to have the function of strengthening the barrier function”, the BWG (Salmonella enterica (SE) [4]; [22]) was 101% and the FCR (Salmonella enterica (SE) [4]; [22]) was 100%. For the same molecule, the “body weight gain effect and feed conversion ratio improvement effect” value (Salmonella enterica (SE) [4]) was “no effect”, the “Antibacterial spectrum” value (Clostridium perfringens) was “+++++” and the “Antibacterial spectrum” value [6] was “++++”. The “Antibacterial spectrum” value [17] was “+++++”, the “Antibacterial spectrum” value [7] was “+++++” and the “Antibacterial spectrum” value [8] was “++++”. The “Antibacterial spectrum” value (Escherichia coli MG1655) was “++” and the “Antibacterial spectrum” value [18] was “+++++”.

— patent publication US11857596B2, “Animal feed additive and animal feed” (priority 2018, dated 2024)
